Results on two compounds are retold here after US20150148235A1, “HERBICIDE-RESISTANT SUNFLOWER PLANTS WITH MULTIPLE HERBICIDE RESISTANT ALLELES OF AHASL1 AND METHODS OF USE” (NIDERA S.A., priority 2013, published 2015).

Data set [1] deals with AHAS enzyme, A122T Heterozygous sunflower. Briefly: AHAS enzyme activity assay, leaf extract. It is filed as biochemical, Helianthus annuus. The following applies: A122T heterozygous hybrid (Set 2). Here is the method: (§1) Twelve greenhouse grown sunflower plants from each of the lines depicted in Table 21 were bulked and subjected to an AHAS enzyme activity assay via the method of Singh et al. (1988) Anal. Biochem. 171:173-179. Each activity assay was repeated twice. Due to the large number of samples, the experiment was split into two sets (Table 21).
(§2) Young, actively growing leaves, from four week old plantlets, were ground in a mortar and pestle with liquid N2 and extracted with a buffer composed of 100 mM Pyruvate, 200 mM KH2PO4, 20 mM MgCl2, 2 mM thiamine pyrophosphate and […]. Plant extracts were then spun through a 10 mL Zeba TM desalt spin column (Pierce #89893) as per the manufacturer's recommendation. The inhibition assay was performed as described by Singh et al. (1988) Anal. Biochem. 171:173-179. Assays were conducted in a 96-well format. Fifty μl of inhibitor was added to each well containing 50 μl of soluble protein extract to give final concentrations of 0.78, 1.56, 3.125, 6.25, 12.5, 25, 50 and 100 μM imazamox or 0.78, 1.56, 3.125, 6.25, 12.5, 25, 50 and 100 μM imazapyr. Zero herbicide controls were also included for each line. Reactions were processed as outlined by Singh et al. (1988) Anal. Biochem. 171:173-179. Absorbance was measured at 530 nm. AHAS activity, expressed as the mean of the absorbance values for each treatment, was presented as a percentage of the mean of the zero-herbicide controls.

Data set [2] has as its system AHAS enzyme, WT sunflower line B7. The data set can be described thus: AHAS enzyme activity assay, leaf extract. It counts as biochemical, Helianthus annuus. Particulars: 100 μM. As for the experimental part:
as §1, §2

The test system of data set [3] is sunflower GM40 (A122T), HA425 (A205V) and progeny. It counts as in vivo, Helianthus annuus. As for the experimental part:
To determine the phenotypic interactions of the resistance gene A122T and the Imr1 gene (A205V) already described in IMI-R sunflowers (HA425), F1, F2 and BC1F1 populations from the cross GM40 (A122T)/HA425 (A205V) were evaluated at two herbicide applications rates (80 and 320 g. a. i. Ha^−1 of imazapyr). […] When F2 and BC1F1 populations were scored at the higher herbicide rate (320 g. a. i. Ha-1), which discriminates both parents, segregation for susceptibility was observed. Only two phenotypic classes could be detected, a resistant class with plants without any injury or slight symptoms and a susceptible phenotype that was killed like the control line HA425.

As to `COCc1cnc(C2=NC(C)(C(C)C)C(=O)N2)c(C(=O)O)c1` (stereo not drawn) [imazamox], the AHAS activity was 30% in data set [1] (50 μM); 30% in data set [1] (100 μM); 17 % relative to the untreated co in data set [2] (WT line B7, Set 1); 11 % relative to the untreated co in data set [2] (WT line B7, Set 2).
Take `CC(C)C1(C)N=C(c2ncccc2C(=O)O)NC1=O` (stereo not drawn) [imazapyr]: the “susceptible plants in F2 and BC1F1 populations of GM40 (A122T)/HA425 (A205V)” value in data set [3] (80 g a.i./ha (1x, lower rate)) is “No susceptible plants were observed”. Moreover, the “response of control line HA425” value in data set [3] (HA425 (A205V), 320 g a.i./ha) is reported as “killed”.
